Reference: patent US20250144125A1 (priority 2021, published 2025)
Read-outs that look alike come from different tables or passages of the source. Marks after values point to notes of the source that are not given here.

Columns and labels:
[1] = tested on: measles virus (CC strain); experiment: microbe, parasite or virus in culture; assay type: cell-based
in vitro [2] = details: African green monkey
[3] = tested on: human norovirus genogroup I NoV (Norwalk virus replicon) in HG23 cells; experiment: Human norovirus antiviral assay, qRT PCR in HG23 NoV replicon cells; assay type: cell-based; details: for EC50: Norwalk virus
[4] = Cytotoxicity in the human norovirus replicon assay (HG23 cells); details: human, HG23 Nov replicon cells
MERS-CoV (EMC strain) = experiment: microbe, parasite or virus in culture; assay type: cell-based
[5] = tested on: tacaribe virus (TRVL11573 strain); experiment: microbe, parasite or virus in culture; assay type: cell-based; details: for EC50: read-out: Tacaribe virus EC50 TRVL 11573 strain
[6] = tested on: yellow fever virus (YFV 17D strain); experiment: microbe, parasite or virus in culture; assay type: cell-based
[7] = tested on: enterovirus-71 (Tainan/4643/98 strain); experiment: organism not typed; assay type: cell-based
Vero cells = details: African green monkey
in vitro [8] = details: African green monkey; remark: listed apart in the source
in vitro [9] = details: human
[10] = tested on: chikungunya virus (S27 strain); experiment: microbe, parasite or virus in culture; assay type: cell-based
[11] = tested on: dengue virus 2 (New Guinea C strain); experiment: microbe, parasite or virus in culture; assay type: cell-based
[12] = tested on: influenza A (H1N1) virus (California/07/2009 strain); experiment: microbe, parasite or virus in culture; assay type: cell-based
in vitro [13] = details: dog
[14] = Measles morbillivirus, Vero 76, read-out: Measles EC50 CC strain
[15] = HG23 Nov replicon cells, qRT PCR intracellular RNA, read-out: EC50 human norovirus
[16] = read-out: Measles EC50 CC strain
[17] = Mammarenavirus tacaribeense, Vero
[18] = Yellow fever virus, Huh-7, read-out: Yellow fever virus EC50 YFV 17D strain
[19] = read-out: Yellow fever virus EC50 YFV 17D strain
[20] = Vero 76, read-out: EC50 enterovirus-71
[21] = read-out: MERS-CoV CC50 Vero 76, Neutral Red, MERS-CoV screen
[22] = read-out: Yellow fever virus CC50 Huh7, Neutral Red, YFV screen
[23] = Middle East respiratory syndrome-related coronavirus, Vero 76, read-out: MERS-CoV EC50 EMC strain
[24] = read-out: MERS-CoV EC50 EMC strain
[25] = Chikungunya virus, Vero 76, read-out: EC50 chikungunya virus
[26] = read-out: EC50 chikungunya virus
[27] = Dengue virus, Huh-7, read-out: EC50 dengue virus 2
[28] = Influenza A virus, H1N1, MDCK, read-out: EC50 California/07/2009 strain
[29] = read-out: Yellow fever virus CC50 Huh7, Visual, YFV screen

Row | Compound | EC50 [1, 14] | CC50 (in vitro [2]; Measles CC50 Vero 76) | EC50 [3, 15] [µM] | CC50 at 3 days [4] [µM] | EC50 [1, 16] [µM] | EC50 [5, 17] | EC50 [6, 18] [µM] | EC50 [6, 19] [µM] | EC50 [7, 20] [µM] | CC50 (Vero 76 cells; [21]) [µM] | CC50 (Huh7 cells; human) [µM] | CC50 (Huh7 cells; [22]) [µM] | CC50 (in vitro [2]; MERS-CoV CC50 Vero 76) [µM] | CC50 (in vitro [9]; Yellow fever virus CC50 Huh7) [µM] | EC50 (MERS-CoV (EMC strain); [23]) [µM] | EC50 [10, 25] [µM] | EC50 [11, 27] [µM] | EC50 ([11]; read-out: EC50 dengue virus 2) [µM] | EC50 [12, 28] | CC50 (in vitro [13]; CC50 MDCK) | other results
1 | Nc1ccn([C@@H]2O[C@H](CO)[C@@H](O)[C@H]2F)c(=O)n1 [2′-Fluoro-2′-deoxycytidine, 2′-fluoro-2′-deoxycytidine, reference compound] | 1 µg/mL | > 100 µg/mL | – | – | – | – | – | – | – | – | – | – | – | – | – | – | – | – | – | – | Measles EC50 CC strain [1]: 0.95^d μg/mL
2 | C[C@@]1(O)[C@H](O)[C@@H](CO)O[C@H]1n1ccc(N)nc1=O [2′C Methyl Cytidine, 2′-C-Methylcytidine, reference compound] | – | – | 1.57 | > 25 | – | – | – | – | – | – | – | – | – | – | – | – | – | – | – | – | –
3 | C=C(OCC)c1ncnc2c1ccn2[C@@H]1O[C@H](CO)[C@@H](O)[C@H]1O [3.1b, 6-(1-Ethoxyvinyl)-9-β-D-ribofuranosyl-7-deazapurine] | > 100 µM | > 100 µM | – | 60.5 | 64 | 44 µM | > 28 | > 22 | > 84 | 86 | 8.6 | 22 | 52 | 28 | – | – | – | – | – | – | activity against MERS-CoV in words (MERS-CoV (EMC strain)): moderately active with low selectivity index; EC50 [5]: 39 µM; EC50 ([3]; HG23, read-out: EC50 human norovirus): 0.007 µM; EC50 ([7]; read-out: EC50 enterovirus-71): 90 µM; CC50 (Vero 76 cells; African green monkey): 100 µM; CC50 (Vero cells): 99 µM; CC50 (in vitro [8]; Tacaribe virus CC50 Vero): 100 µM; CC50 (in vitro [9]; CC50): 8.5 µM
4 | OC[C@H]1O[C@@H](n2ccc3c(C#Cc4ccc(F)cc4)ncnc32)[C@H](O)[C@@H]1O [3.1h, 6-((4-Fluorophenyl)ethynyl)-9-β-D-ribofuranosyl-7-deazapurine] | 6.2 µM | 28 µM | < 0.001 | 38.5 | 7.1 | 24 µM | 2.2 | 2.3 | > 39 | 29 | – | 30 | 32 | 32 | > 32 | > 36 | > 32 | > 29 | – | – | EC50 (MERS-CoV (EMC strain); [24]): > 29 µM; EC50 [5]: > 23 µM; activity against human norovirus in words [3]: low nanomolar activity and high selectivity; EC50 [10, 26]: 32 µM; EC50 ([7]; read-out: EC50 enterovirus-71): > 46 µM; CC50 (Vero cells): 23 µM; CC50 (in vitro [2]; CC50): 36 µM; CC50 (in vitro [8]; Tacaribe virus CC50 Vero): 24 µM
5 | OC[C@H]1O[C@@H](n2ccc3c(C#Cc4cccc(F)c4)ncnc32)[C@H](O)[C@@H]1O [3.1i, 6-((3-Fluorophenyl)ethynyl)-9-β-D-ribofuranosyl-7-deazapurine] | 3.2 µM | 24 µM | – | – | 3.6 | > 12 µM | 1.2 | 0.85 | > 32 | – | 22 | 30 | 32 | 32 | > 32 | > 32 | 2.6 | 2.7 | – | – | EC50 [5]: > 11 µM; EC50 [10, 26]: > 30 µM; EC50 ([7]; read-out: EC50 enterovirus-71): > 28 µM; CC50 (Vero cells): 11 µM; CC50 (in vitro [8]; Tacaribe virus CC50 Vero): 12 µM; CC50 (in vitro [9]; CC50): 24 µM
6 | C#Cc1cn([C@@H]2O[C@H](CO)[C@@H](O)[C@H]2O)c2ncnc(CC)c12 [3.1l, 6-Ethyl-7-ethynyl-9-β-D-ribofuranosyl-7-deazapurine] | 72 µM | – | 0.393 | 0.455 | > 100 | > 100 µM | > 100 | > 92 | > 100 | > 100 | 51 | 92 | > 100 | > 100 | – | > 100 | > 100 | > 51 | 0.34 µM | > 100 µM | EC50 ([12]; read-out: EC50 California/07/2009 strain): 0.52 µM; activity against human norovirus in words [3]: no promising activity
7 | C=Cc1cn([C@@H]2O[C@H](CO)[C@@H](O)[C@H]2O)c2ncnc(CC)c12 [3.1m, 6-Ethyl-7-vinyl-9-β-D-ribofuranosyl-7-deazapurine] | 25 µM | – | 3.35 | 14.6 | 43 | > 100 µM | – | – | > 100 | > 100 | – | 20 | > 100 | – | 22 | > 100 | 32 | > 19 | > 100 µM | > 100 µM | EC50 (MERS-CoV (EMC strain); [24]): 14 µM; activity against human norovirus in words [3]: no promising activity; CC50 (Huh7 cells; [29]): 4.6 µM
8 | CCc1ncnc2c1c(C#CC1CC1)cn2[C@@H]1O[C@H](CO)[C@@H](O)[C@H]1O [3.1n, 6-Ethyl-7-cyclopropylethynyl-9-β-D-ribofuranosyl-7-deazapurine] | 64 µM | > 100 µM | 0.062 | 0.342 | 33 | > 100 µM | – | – | > 100 | > 100 | – | 21 | 100 | – | 10 | > 100 | 13 | > 8.3 | > 100 µM | > 100 µM | activity against MERS-CoV in words (MERS-CoV (EMC strain)): moderately active with low selectivity index; EC50 (MERS-CoV (EMC strain); [24]): 5.7 µM; activity against human norovirus in words [3]: no promising activity; CC50 (Huh7 cells; [29]): 100 µM; CC50 (in vitro [2]; CC50): > 100 µM; CC50 (in vitro [8]; Tacaribe virus CC50 Vero): > 100 µM
9 | CCc1ncnc2c1c(I)cn2[C@@H]1O[C@H](CO)[C@@H](O)[C@H]1O [3.1o, 6-Ethyl-7-iodo-9-β-D-ribofuranosyl-7-deazapurine] | 100 µM | – | – | – | > 100 | > 100 µM | > 100 | > 85 | > 100 | > 100 | 64 | 85 | > 100 | > 100 | > 100 | > 100 | > 68 | > 64 | > 100 µM | > 100 µM | EC50 (MERS-CoV (EMC strain); [24]): 68 µM; CC50 (in vitro [9]; CC50): 68 µM
10 | CCc1ncnc2c1c(Cl)cn2[C@@H]1O[C@H](CO)[C@@H](O)[C@H]1O [3.1p, 6-Ethyl-7-chloro-9-β-D-ribofuranosyl-7-deazapurine] | 100 µM | – | – | – | > 100 | 100 µM | > 100 | – | > 100 | > 100 | 38 | > 100 | > 100 | > 100 | 100 | > 100 | 32 | > 38 | > 100 µM | > 100 µM | EC50 (MERS-CoV (EMC strain); [24]): > 100 µM; EC50 [5]: > 100 µM; CC50 (in vitro [9]; CC50): 68 µM
11 | CCc1ncnc2c1c(Br)cn2[C@@H]1O[C@H](CO)[C@@H](O)[C@H]1O [3.1q, 6-Ethyl-7-bromo-9-β-D-ribofuranosyl-7-deazapurine] | > 100 µM | – | – | – | – | > 100 µM | > 100 | – | > 100 | > 100 | 47 | > 100 | > 100 | > 100 | > 100 | – | > 68 | > 47 | > 100 µM | > 100 µM | CC50 (in vitro [9]; CC50): 68 µM
12 | NC(=O)c1ncn([C@@H]2O[C@H](CO)[C@@H](O)[C@H]2O)n1 [Ribavirin, ribavirin, reference compound] | – | – | – | – | – | 9.2 µg/mL | – | – | – | – | – | – | – | – | – | – | – | – | 2.2 µg/mL | > 1000 µg/mL | Tacaribe virus EC50 TRVL 11573 strain [5]: 7.8^d μg/mL; EC50 California/07/2009 strain [12]: 2.4^d μg/mL; EC50 ([12]; Influenza A virus, H1N1, MDCK, read-out: EC50 Influenza A (H1N1)): 10.2 µM; CC50 (Vero cells): > 3600 µM; Tacaribe virus CC50 Vero (Vero cells): 970^d μg/mL; CC50 (in vitro [8]; CC50): > 2950 µM; CC50 (in vitro [8]; Tacaribe virus CC50 Vero): > 1000 µg/mL; CC50 (in vitro [13]; CC50): > 4100 µM
